Laboratory results from PMC7013346, “Bioaccessibility and Pharmacokinetics of a Commercial Saffron (Crocus sativus L.) Extract” (Evidence-based Complementary and Alternative Medicine : eCAM, 2020).
Read-outs that look alike come from different tables or passages of the source. Marks after values point to notes of the source that are not given here.

What was measured:
[1] = Single-dose pharmacokinetics of crocetin in plasma after oral affron® tablets in healthy volunteers; assay type: in vivo, human; settings: for Detection in plasma after affron® intake: human plasma, 0.5-3 h and 24 h after 56 or 84 mg affron®, HPLC
Method: A single dose, randomized, double blinded study was used to evaluate the pharmacokinetics of two different saffron doses (56 mg and 84 mg). The randomization code was generated by Random Allocation Software, sealed envelope (London, UK). Enrolled participants were then allocated to one of two groups: group 1: consumed 4 × 14 mg of affron® tablets (56 mg single dose); group: 2 : 6 × 14 mg of affron® tablets (84 mg single dose).
The subjects of the pharmacokinetics were adult male (n = 5) and female (n = 8; nonpregnant and nonlactating) healthy volunteers of 18–30 years age. All participants self-reported to be in normal physical health (BMI < 30) and passed the exclusion screening. Exclusion criteria included suffering clinically significant medical condition, such as, but not limited to, cardiovascular, neurological, psychiatric, renal, immunological, endocrine (including uncontrolled diabetes or thyroid disease), or uncontrolled haematological abnormalities. Other exclusion criteria were the use within the past 3 months of the tested compounds and/or antioxidants; no current use of prescription medications except the oral contraceptive pill in women; and known allergy to any tested compound and/or antioxidant.
All participants were advised to fast from 10 : 00 pm prior to the study until the collection of the first blood sample. Fasting was broken immediately after dosing the corresponding tablets. At time 0 h and at 4 h after dosing, balanced breakfasts (410 kcal, approximately 30% of them from fats) and lunches (625 kcal, approximately 30% from fats) were served at the center. The meals were poor in carotenoids. Subjects remained onsite for the full first 6 hours of sample collection and returned to the center again for the 24 h samples. Subjects were monitored and asked to report any possible side-effects experienced due to intake of the tablets during the whole 24 h time after the intake of the tablets.
For crocetin pharmacokinetic analysis, blood samples (3 ml collected into tubes with EDTA) were drawn prior to affron® supplementation (time 0 h), between time 30 and 180 min at every 30 min and 24 h after supplementation. The blood tubes were briefly mixed by inversion and put on ice and centrifuged (600 g, 4°C for 10 min) to separate the plasma. The EDTA-plasma of every sample was carefully removed in 3 aliquots (500 μl each) and stored at −20°C for less than 48 h before being finally transported and stored at −80°C.
Plasma samples were extracted based on the method described and validated by Mohammadpour et al.. Briefly, plasma samples were thawed to room temperature. Then, 20 μl of an internal standard solution of 13-cis-retinoic acid and 120 μl acetonitrile were added to 100 μl of sample. The samples tubes were capped and vortexed for 10 s and put on ice for 5 min. The samples were then gently rotated for 10 minutes before centrifuging at 12000 g for 10 min. The supernatant was collected and analysed by HPLC.
The efficiency of the extraction process was estimated by the measure of the residual amount of the internal standard, and 13-cis-retinoic acid was recovered after the analysis. The recovery percentage was then applied to the results to calculate the true concentration of crocetin in the samples.
The chromatogram of a sample of pure standard crocetin and its typical absorption wavelength were used to identify and confirm the crocetin peak in every analysis, as shown in Mohammadpour et al..
The crocetin concentration in biological samples was calculated using a standard linear curve at several crocetin concentration and the Shimadzu software for chromatogram analysis. All samples fell within the range of the linear standard curve (concentration (μg/ml) = (AUC + 131.56)/9475). The intra-assay precision CV was 4.8%, and the interassay variability and precision CV were 7.3%, with a blood detection limit of 0.05 μg/ml.
Pharmacokinetic parameters were derived using GraphPad Prism 7.0 (California, USA). […]

[2] = Abiotic in vitro digestion (salivary, gastric, duodenal steps) of affron® tablets, HPLC-PAD/MS quantification; assay type: in vitro ADME; settings: for Bioactive molecule content, initial sample: affron® before in vitro digestion; for Bioactive molecule content, initial sample / Bioactive molecule content, digested sample, duodenal / Bioactive molecule content, digested sample, gastric / Bioactive molecule content, digested sample, salivary: mean ± SD; for Bioactive molecule content, digested sample, duodenal: after duodenal step, 150 min, pH 7, 37°C, pancreatin and bile extract; for Bioactive molecule content, digested sample, gastric: after gastric step, 90 min, pH 2, 37°C, pepsin; for Bioactive molecule content, digested sample, salivary: after salivary step, 5 min, pH 6.9, 37°C, α-amylase; for Bioaccessibility: after whole in vitro digestion of affron® tablets, relative to initial content
Method: Briefly, the salivary step runs for 5 min at pH 6.9 and 37°C, under aerobic conditions with 3.9 units α-[…]. Then, the samples were transferred for 90 min to the gastric step at pH 2 and 37°C with 71.2 units pepsin/ml under anaerobic conditions. Finally, the duodenal step was set for 150 min at pH 7 and 37°C, with 9.2 mg pancreatin/ml and 55.2 mg bile extract/ml under anaerobic conditions. Samples were taken from every steps and were centrifuged at 7000 g for 40 min at 4°C. […] All samples were analysed at least in duplicate. High-performance liquid chromatography (HPLC) analysis of bioactive components from initial and digested saffron extract was performed using an Agilent Technologies 1220 Infinity series system equipped with a photodiode array detector (PAD) according to Kell et al., while the analysis of crocetin was according to Umigai et al.. […] To estimate the percentage of bioaccessibility of the main bioactive compounds of affron®, an equation was used according to Ordoudi et al.

[3] = parameters: method as in PMID 23638292; settings: human, single oral dose of 16 mg of saffron crocetins; cited from earlier work
[4] = parameters: method as in PMID 21112749; settings: human, single oral dose of 22.5 mg of crocetin from G. jasminoides; cited from earlier work

Compound | half-life ([1]; both sexes, plasma, crocetin after oral affron® tablets, human, dose not separated, read-out: Plasmatic half-life (converted)) [min] | Clearance ([1]; crocetin after oral affron® tablets, human, dose not separated) [L/h] | Time after administration at which plasma crocetin fell to the HPLC-PAD quantification limit / ceased to be detected ([1]; human, 56 or 84 mg affron®) [h] | Crocetin concentration in plasma 24 h after affron® intake ([1]; human, 24 h, detection limit 0.05 μg/ml) | Bioactive molecule content, initial sample [2] | Bioactive molecule content, digested sample, duodenal [2] | Bioactive molecule content, digested sample, gastric [2] | Bioactive molecule content, digested sample, salivary [2] | Bioaccessibility [2] [%] | Change of concentration over the whole in vitro digestion process vs initial composition ([2]; salivary, stomach and duodenal steps) | Cmax [3] [ng/mL] | Cmax [4] [ng/mL] | Detection in plasma after affron® intake [1] | Detection in plasma after affron® intake ([1]; listed as safranal) | Bioactive molecule content, initial sample ([2]; listed as safranal) | Bioactive molecule content, digested sample, duodenal ([2]; listed as safranal) | Increase of content after the digestion process vs initial concentration ([2]; whole in vitro digestion) | Detection in plasma after affron® intake ([1]; listed as picrocrocin) | Decrease of content after the digestion process ([2]; whole in vitro digestion vs initial conditions) [%] | Reduction of content during gastric digestion ([2]; acid-pepsin environment, gastric step) [%]
CC(/C=C/C=C(\C)C(=O)O)=C\C=C\C=C(C)\C=C\C=C(/C)C(=O)O [Crocetin] | 51 ± 2.4 | 2.70 ± 0.14 | 3 | below the detection limit | 0.03 ± 0.01^a %, dry basis | 0.02 ± 0.01^a %, dry basis | 0.03 ± 0.01^a %, dry basis | 0.02 ± 0.01^a %, dry basis | 66.67 | did not increase | 350 | 280 | – | – | – | – | – | – | – | –
CC1=C(C=O)C(C)(C)CC=C1 [Safranal] | – | – | – | – | 0.04 ± 0.01^a %, dry basis | 0.08 ± 0.01^b %, dry basis | 0.21 ± 0.01^c %, dry basis | 0.03 ± 0.00^a %, dry basis | 200.00 | – | – | – | not detected or appeared below the detection limit | not detected | 0.04 %, dry basis | 0.08 %, dry basis | about 2 folds | – | – | –
Kaempferol diglucoside | – | – | – | – | 0.13 ± 0.01^b,c %, dry basis | 0.09 ± 0.01^a %, dry basis | 0.12 ± 0.01^b %, dry basis | 0.14 ± 0.01^c %, dry basis | 69.23 | – | – | – | – | – | – | – | – | – | – | –
CC1=C(C=O)C(C)(C)CC(O[C@@H]2O[C@H](CO)[C@@H](O)[C@H](O)[C@H]2O)C1 (stereo partly drawn) [Picrocrocin, 4-(β-D-glucopyranosyloxy)-2,6,6-trimethyl-1-cyclohexene-1-carboxaldehyde] | – | – | – | – | 3.21 ± 0.07^c %, dry basis | 2.61 ± 0.05^b %, dry basis | 2.07 ± 0.02^a %, dry basis | 3.14 ± 0.11^c %, dry basis | 81.31 | – | – | – | absent | – | – | – | – | not detected | 19 | –
CC(/C=C/C=C(\C)C(=O)O[C@@H]1O[C@H](CO[C@@H]2O[C@H](CO)[C@@H](O)[C@H](O)[C@H]2O)[C@@H](O)[C@H](O)[C@H]1O)=C\C=C\C=C(C)\C=C\C=C(/C)C(=O)O[C@@H]1O[C@H](CO[C@@H]2O[C@H](CO)[C@@H](O)[C@H](O)[C@H]2O)[C@@H](O)[C@H](O)[C@H]1O (relative stereo) [t-crocin-4, trans-crocin-4] | – | – | – | – | 1.66 ± 0.04^b %, dry basis | 0.20 ± 0.04^a %, dry basis | 0.26 ± 0.03^a %, dry basis | 1.11 ± 0.43^b %, dry basis | 12.05 | – | – | – | – | – | – | – | – | – | – | 84
